Data published in patent US11021424B2, “Redox-active therapeutics for treatment of mitochondrial diseases and other conditions and modulation of energy biomarkers” (PTC THERAPEUTICS, INC., priority 2005, dated 2021).
Where two headings read alike, the source gives them in different places.

Tested on: FRDA fibroblasts
Test: Rescue of FRDA fibroblasts stressed by L-buthionine-(S,R)-sulfoximine (BSO), viability by Calcein AM fluorescence
Assay type: cell-based, human
Settings: for EC50: BSO-stressed (1 mM) FRDA fibroblasts GM04078
Protocol: An initial screen was performed to identify compounds effective for the amelioration of redox disorders. Test samples, 4 reference compounds (idebenone, decylubiquinone, Trolox and α-tocopherol acetate), and solvent controls were tested for their ability to rescue FRDA fibroblasts stressed by addition of L-buthionine-(S,R)-sulfoximine (BSO), as described in Jauslin et al., Hum. Mol. Genet. 11(24):3055 (2002), Jauslin et al., FASEB J. 17:1972-4 (2003), and International Patent Application WO 2004/003565. […] This specific BSO-mediated cell death can be prevented by administration of antioxidants or molecules involved in the antioxidant pathway, such as α-tocopherol, short chain quinones, selenium, or small molecule glutathione peroxidase mimetics. However, antioxidants differ in their potency, i.e. the concentration at which they are able to rescue BSO-stressed FRDA fibroblasts. With this assay EC50 concentrations of the test compounds were determined and compared to known reference antioxidants.
MEM (a medium enriched in amino acids and vitamins, catalog no. 1-31F24-I) and Medium 199 (M199, catalog no. 1-21F224) with Earle's Balanced Salts, without phenol red, were purchased from Bioconcept. Fetal Calf Serum was obtained from PAA Laboratories. Basic fibroblast growth factor and epidermal growth factor were purchased from PeproTech. Penicillin-streptomycin-glutamine mix, L-buthionine (S,R)-sulfoximine, (+)-α-tocopherol acetate, decylubiquinone, and insulin from bovine pancreas were purchased from Sigma. Trolox (6-hydroxy-2,5,7,8-tetramethylchromane-2-carboxylic acid) was obtained from Fluka. Idebenone was obtained from Chemo Iberica. Calcein AM was purchased from Molecular Probes. Cell culture medium was made by combining 125 ml M199 EBS, 50 ml Fetal Calf Serum, 100 U/ml penicillin, 100 μg/ml streptomycin, 2 mM glutamine, 10 μg/ml insulin, 10 ng/ml EGF, and 10 ng/ml bFGF; MEM EBS was added to make the volume up to 500 ml. A 10 mM BSO solution was prepared by dissolving 444 mg BSO in 200 ml of medium with subsequent filter-sterilization. During the course of the experiments, this solution was stored at +4° C. The cells were obtained from the Coriell Cell Repositories (Camden, N.J.; repository number GM04078) and grown in 10 cm tissue culture plates. Every third day, they were split at a 1:3 ratio.
The test samples were supplied in 1.5 ml glass vials. The compounds were diluted with DMSO, ethanol or PBS to result in a 5 mM stock solution. Once dissolved, they were stored at −20° C. Reference antioxidants (idebenone, decylubiquinone, α-tocopherol acetate and trolox) were dissolved in DMSO.
Test samples were screened according to the following protocol: A culture with FRDA fibroblasts was started from a 1 ml vial with approximately 500,000 cells stored in liquid nitrogen. Cells were propagated in 10 cm cell culture dishes by splitting every third day in a ratio of 1:3 until nine plates were available. Once confluent, fibroblasts were harvested. For 54 micro titer plates (96 well-MTP) a total of 14.3 million cells (passage eight) were re-suspended in 480 ml medium, corresponding to 100 μl medium with 3,000 cells/well. The remaining cells were distributed in 10 cm cell culture plates (500,000 cells/plate) for propagation. The plates were incubated overnight at 37° C. in a atmosphere with 95% humidity and 5% CO2 to allow attachment of the cells to the culture plate.
MTP medium (243 μl) was added to a well of the microtiter plate. The test compounds were unfrozen, and 7.5 μl of a 5 mM stock solution was dissolved in the well containing 243 μl medium, resulting in a 150 μM master solution. Serial dilutions from the master solution were made. The period between the single dilution steps was kept as short as possible (generally less than 1 second).
Plates were kept overnight in the cell culture incubator. The next day, 10 μl of a 10 mM BSO solution were added to the wells, resulting in a 1 mM final BSO concentration. […]

| Compound | EC50 (average of three experiments, read-out: EC50 Average) [nM] | EC50 (first of three experiments, read-out: EC50 Value 1) [nM] | EC50 (second of three experiments, read-out: EC50 Value 2) [nM] | EC50 (third of three experiments, read-out: EC50 Value 3) [nM] | EC50 (Homo sapiens, average of three experiments, read-out: EC50 Average) [nM] | EC50 (Homo sapiens, first of three experiments, read-out: EC50 Value 1) [nM] | EC50 (Homo sapiens, second of three experiments, read-out: EC50 Value 2) [nM] | EC50 fold lower than alpha-D-tocopherol (human cell culture model of FRDA, relative to alpha-D-tocopherol) | EC50 fold lower than idebenone (human cell culture models of FRDA, relative to idebenone) |
| --- | --- | --- | --- | --- | --- | --- | --- | --- | --- |
| CC(=O)Oc1c(C)c(C)c2c(c1C)CC[C@@](C)(CCC[C@H](C)CCC[C@H](C)CCCC(C)C)O2 [α-tocopherol acetate, (+)-α-tocopherol acetate, reference compound] | 300 | 400 | 150 | 350 | – | – | – | – | – |
| CC1=C(C)C(=O)C(CC[C@](C)(O)CCC[C@H](C)CCC[C@H](C)CCCC(C)C)=C(C)C1=O [α-tocopherol quinone, 2-[(3R,7R,11R)-3-hydroxy-3,7,11,15-tetramethylhexadecyl]-3,5,6-trimethyl-2,5-cyclohexadiene-1,4-dione] | – | – | – | – | 0.0014 | 0.001 | 0.003 | 10^4 fold | 10^5 fold |
